Reference: ChEMBL document CHEMBL1131705, “A highly stereoselective synthesis of plaunotol and its thiourea derivatives as potent antibacterial agents against Helicobacter pylori” (1999)
≈ marks a conversion by molar mass, not a printed value.

Columns and labels:
Type in all cases: functional
[1] = tested on: Helicobacter pylori; assay: In vitro antibacterial activity against Helicobacter pylori (NCTC 11637)
[2] = tested on: Helicobacter pylori; assay: In vitro antibacterial activity against Helicobacter pylori (No. 7)
[3] = tested on: Helicobacter pylori; assay: In vitro antibacterial activity against Helicobacter pylori (CPY 2052)
[4] = tested on: Helicobacter pylori; assay: Antibacterial activity against Helicobacter pylori (NCTC 11637)
[5] = tested on: Helicobacter pylori; assay: Antibacterial activity against Helicobacter pylori (No. 7)
[6] = tested on: Helicobacter pylori; assay: Antibacterial activity against Helicobacter pylori (CPY 2052)

**Q.** `CC(C)=CCC/C(C)=C/CCC(=CCCC(C)=CCO)C/N=C(\S)NCCc1ccccc1` was tested. Which MIC [1] did it give?
**A.** The MIC was 25 µg/mL (≈ 53.3 µM).

**Q.** What about the MIC [2] of the same compound?
**A.** Its MIC is 1.56 µg/mL (≈ 3.33 µM).

**Q.** What about the MIC [3] of the same compound?
**A.** The MIC was 1.56 µg/mL (≈ 3.33 µM).

**Q.** `CC(C)=CCC/C(C)=C/CC/C(=C/CC/C(C)=C/C/N=C(\S)NCCc1ccccc1)CO` was tested. Which MIC [1] did it give?
**A.** Its MIC is at most 0.1 µg/mL.

**Q.** And the MIC [2]?
**A.** Its MIC is at most 0.1 µg/mL.

**Q.** What about the MIC [3] of the same compound?
**A.** The MIC was at most 0.1 µg/mL.

**Q.** For `CC1(C)S[C@@H]2[C@H](NC(=O)[C@H](N)c3ccc(O)cc3)C(=O)N2[C@H]1C(=O)O` [AMOXICILLIN], which MIC [1] is on record?
**A.** Its MIC is 0.025 µg/mL (≈ 0.0684 µM).

**Q.** And the MIC [2]?
**A.** The MIC was 0.1 µg/mL (≈ 0.274 µM).

**Q.** And the MIC [3]?
**A.** The MIC was 0.05 µg/mL (≈ 0.137 µM).

**Q.** What does the source list for `CC(C)=CCC/C(C)=C/CC/C(=C/CC/C(C)=C/C/N=C(\S)NCCc1ccccc1)C/N=C(\S)NCCc1ccccc1`?
**A.** MIC [1]: 6.25 µg/mL (≈ 9.9 µM); MIC [2]: 6.25 µg/mL (≈ 9.9 µM); MIC [3]: 0.78 µg/mL (≈ 1.24 µM)

**Q.** What does the source list for `CC(C)=CCC/C(C)=C/CC/C(=C/CC/C(C)=C/CO)CO` [PLAUNOTOL]?
**A.** MIC [4]: 12.5 µg/mL (≈ 40.8 µM); MIC [5]: 6.25 µg/mL (≈ 20.4 µM); MIC [6]: 6.25 µg/mL (≈ 20.4 µM)
